Laboratory results published in patent publication US12139461B1, “Piperidine compounds as PDE5 inhibitors” (KING SAUD UNIVERSITY, priority 2024, dated 2024).

What was measured:
[1] = biological target: Phosphodiesterase type 5 (PDE5) (Homo sapiens (Human), UniProt O76074); experiment: In vitro phosphodiesterase type 5 (PDE5) inhibition assay; format: biochemical; conditions: purified PDE5, IMAP FP assay
male rats = experiment: Copulatory behavior testing; format: in vivo, rat; conditions: 5 mg/kg oral; for copulatory efficiency (CE): CE=(IF/MF)x100; for mean intromission interval (MII): MII=EL/IF
Experimental: Sexually mature Wistar albino male and female rats weighing 150-180 g (10-14 weeks old) were used in our study. Males were trained for sexual behavior with estrus females, that is, two hours a day for one week, before the investigations. Females were brought into the estrous phase artificially by sequential injection of estradiol benzoate (Sigma) (25 μg/animal) and progesterone (Sigma) (250 μg/animal) subcutaneously, 48 and 4 hours before pairing, respectively. Only those sexually active animals were used subsequently in the study. Sexually active rats were isolated and housed in separate cages at room temperature (24±2° C.) on a reversed day/night cycle with a relative humidity of 50-55% during the experimental period. All sexual studies were performed in a calm laboratory condition under subdued light. For the toxicity study, adult Wistar albino male rats were used separately. Rats were obtained from the Experimental Animal Care Center, College of Pharmacy, King Saud University. Animals were fed with a standard pellet diet and provided water ad libitum. All experiments were performed per the protocols and recommendations of the NIH Guide for the Care and Use of Laboratory Animals and the legal requirements of King Saud University for investigations on humans and animals.
Based on a preliminary study to select the appropriate dose for the promising synthesized compounds, the compounds were administered separately to sexually experienced male rats by oral gavage at 5 mg/kg in a 0.5% sodium carboxymethyl cellulose (CMC) vehicle. […] All solutions were freshly prepared at a concentration that allowed the administration of 1 ml/kg.
After drug treatment, rats were housed separately in transparent cages for acclimation. Thirty minutes after drug treatment, a sexually receptive female rat with estrous phase was introduced in each cage for 30 min and the following parameters of the copulatory behavior were recorded: namely mount latency (ML; time from introduction of the female until the first mount with or without penile insertion, it measures the degree of arousal or sexual interest or libido of the male), mount frequency (MF; the number of mounts until ejaculation, it is a measure of the degree of the male's sexual interest or libido), intromission latency (IL; time from introduction of the female until the first intromission, it measures the degree of sexual excitement and erection), intromission frequency (IF; number of vaginal penetrations until ejaculation, it measures the degree of erection), ejaculation latency (EL; time from the first intromission until ejaculation, it determines the excellent organization of copulation in rats) and post-ejaculatory interval (PEI; time interval between an ejaculation and the following first mount, it measures the refractory period that comes after ejaculation). Latency values represent the number of seconds that elapses from the introduction of the female into the copulatory arena until the male executes the first mount, intromission or ejaculation. Frequency values represent the number of ejaculations, mounts or intromission recorded during the copulatory test.
Depending on these parameters, the following can be calculated: Copulatory efficiency (CE)=(IF/MF)×100 and mean intromission interval (MII)=EL/IF as previously described (Aydogan F. et al., J Ethnopharmacol 257 (2020) 112868; Besong E B. et al., Biochem Res Int 2018 (2018) 2869727, the contents of each of which are hereby incorporated by reference in their entirety). Experiments were repeated blindly three times using new fresh (unused) animals in each experiment.

male diabetic rats = experiment: Copulatory behavior testing in diabetic animals; format: in vivo, rat; conditions: 5 mg/kg/day for 14 days; for ejaculation latency (EL) / intromission frequency (IF) / intromission latency (IL) / mount frequency (MF) / mount latency (ML) / post-ejaculatory interval (PEI) / copulatory efficiency (CE) / mean intromission interval (MII): male diabetic rats; for copulatory efficiency (CE): CE=(IF/MF)x100; for mean intromission interval (MII): MII=EL/IF; for sexual function in diabetic rats: versus diabetic control rats
Experimental: Nearly 90% of the population suffering from diabetic conditions report disturbances in sexual function, encompassing a decrease in libido, impotence and infertility (Kamenov Z A, Exp Clin Endocrinol Diabetes 123 (2015) 141-158). Diabetic was induced in experimental animals by intraperitoneal administration of streptozotocin in separate groups of male animals. Diabetes was induced by a single intraperitoneal injection of freshly prepared 65 mg/kg streptozotocin in […] citrate buffer, pH 4.4 (Mendez J D and Ramos H G, Arch Med Res 25 (1994) 367-375). All rats receiving streptozotocin were given a 10% sucrose solution in the first 48 h after injection to prevent hypoglycemia. After 72 h of streptozotocin administration, rats with fasting serum glucose more than 350 mg/dL were considered as diabetic. Glibenclamide was given by oral gavage once a day (10 mg/kg/day) to diabetic animals to avoid mortality throughout the investigation (Abdel-Aziz A A-M. et al., Eur J Med Chem 46 (2011) 4324-4329). The male rats were trained for sexual behavior study before induction of diabetes and treatment, as mentioned above. Diabetic rats were given a daily oral dose of 5 mg/kg of compounds C9, C14 and C21 for 14 consecutive days. The sexual behavior of the animals was assessed on day 15 of the treatment. The copulatory behavior testing was performed, and CE and MII were calculated.

[2] = test system: sexually experienced male rats; experiment: Penile erection index (noncontact erection test); format: in vivo, rat; conditions: for erectile response: oral treatment; for ED50: Rattus norvegicus, linear regression of proportion of responding rats, read-out: effective dose ED50 (dose required to give 50% responding rats)
Experimental: The penile erection index is an established means of determining the erection promoting properties of a substance. Determination of penile erection in a noncontact position was calculated as reported previously (Haripriya V M. et al., Andrologia 51 (2019) e13180; Sharma V. et al., J Ethnopharmacol 143 (2012) 201-206, the contents of each of which are hereby incorporated by reference in their entirety). The sexually experienced male rats of all groups were given the treatment 30 minutes before experimentation. The number of animals for each dose was ten rats in each experiment. […] The results shown are the average of three separate experiments. Control animals were given 0.5% CMC as a vehicle.
The rats of each group were placed in the observation cages (five at a time) divided into half by two sheets of metal mesh, preventing contact but allowing auditory, visual and olfactory stimuli. After a 5-min adaptation period, the test was started by placing an estrus female on the other side of the cage. Penile erection was recorded when the rats bent down to lick their erect penis. Homosexual mounting was also counted when a male rat mounted another male rat performing pelvic thrusts with or without a penile erection. […] The effective dose ED50 (the dose required to give 50% responding rats) for examined compounds was calculated using linear regression analysis by GraphPad software with the proportion of responding rats as the input data and expressed as μmol/kg.

[3] = Evaluation of LD50 (acute oral toxicity); format: in vivo; conditions: rat, in vivo, po; single intragastric administration, rats, 24 h
From the text: (§1) Healthy rats were divided into groups of 10 rats and maintained as described above. Rats had free access to water and food, except for a short fasting period before the treatment with the single oral dose of compounds C9, C14 and C21 or the solvent. The compounds were formulated with 1% CMC. An approximate LD50 was initially determined in a pilot study by a so called ‘staircase method’ using a small number of animals (2 each dose) and increasing doses of tested compounds. Three doses were then chosen for the determination of oral median lethal dose (LDso) (500, 1000 and 2000 mg/kg) and given to three groups of rats (10 in each group). Another group of rats (6 rats) was given equal amounts of 1% CMC orally and served as a control group. […] After 24 hours, the number of dead rats was counted in each group. The percentage of animals that had died at each dose level was transformed to probits, and then LD50 was determined by the method of Miller and Tainter, 1944 as described previously (Randhawa M A, J Ayub Med Coll Abbottabad 21 (2009) 184-185, the contents of which are hereby incorporated by reference in their entirety).

rats = experiment: Evaluation of LD50 (acute oral toxicity); format: in vivo; conditions: single oral dose 500-2000 mg/kg
From the text: as §1

SMILES	IC50 [1]	efficacy in improving copulatory behavior (male rats)	ejaculation latency (EL) (male rats)	intromission frequency (IF) (male rats)	intromission latency (IL) (male rats)	mount frequency (MF) (male rats)	mount latency (ML) (male rats)	post-ejaculatory interval (PEI) (male rats)	copulatory efficiency (CE) (male rats)	mean intromission interval (MII) (male rats)	ejaculation latency (EL) (male diabetic rats)	intromission frequency (IF) (male diabetic rats)	intromission latency (IL) (male diabetic rats)	mount frequency (MF) (male diabetic rats)	mount latency (ML) (male diabetic rats)	post-ejaculatory interval (PEI) (male diabetic rats)	copulatory efficiency (CE) (male diabetic rats)	mean intromission interval (MII) (male diabetic rats)	sexual function in diabetic rats (male diabetic rats)	erectile response ([2]; 1.25-5 mg/kg)	also measured
O=S(=O)(c1ccc(Cl)cc1Cl)N1CCC(c2ccccc2)CC1 [Compound C9, 1-((2,4-Dichlorophenyl)sulfonyl)-4-phenylpiperidine]	47.9 nM	more pronounced	368.3 s	12.8	177.6 s	23.6	74.6 s	355.6 s	55.2%	29.0	223.3 s	4.3	305.1 s	10.6	137.1 s	552.8 s	40.9%	53.1	restored	statistically elevated	penile erection index (PEI) ([2]; oral, dose 1.25 mg/kg): 23.3 ± 3.3; penile erection index (PEI) ([2]; oral, dose 2.5 mg/kg): 53.3 ± 8.8; penile erection index (PEI) ([2]; oral, dose 5 mg/kg): 60.0 ± 5.7; LD50 at 24 h [3]: > 2000 mg/kg; toxic symptoms after oral dosing (rats): gradually became drowsy and less responsive
NS(=O)(=O)c1ccc(CNC(=O)CN2CCC(Cc3ccccc3)CC2)cc1 [Compound C14, 2-(4-Benzylpiperidin-1-yl)-N-(4-sulfamoylbenzyl)acetamide]	39.4 nM	more pronounced	425.1 s	20.6	122.6 s	27.3	54.6 s	277.1 s	76.2%	20.8	208.3 s	3.8	327.6 s	10.6	158.0 s	505.6 s	35.6%	55.7	restored	statistically elevated	ED50 ([2]; oral): 10.1 µmol/kg; animal response (proportion of responding rats) with dose ([2]; oral, 1.25-5 mg/kg): higher response; penile erection index (PEI) ([2]; oral, dose 1.25 mg/kg): 26.6 ± 3.4; penile erection index (PEI) ([2]; oral, dose 2.5 mg/kg): 46.6 ± 3.3; penile erection index (PEI) ([2]; oral, dose 5 mg/kg): 90.0 ± 11.5; LD50 at 24 h [3]: > 2000 mg/kg; toxic symptoms after oral dosing (rats): gradually became drowsy and less responsive
O=S(=O)(c1ccc(Cl)cc1Cl)N1CCC(Cc2ccccc2)CC1 [Compound C21, 4-Benzyl-1-((2,4-dichlorophenyl)sulfonyl)piperidine]	41.2 nM	more pronounced	395.0 s	16.8	178.6 s	26.6	72.5 s	298.0 s	63.6%	23.74	248.5 s	4.3	326.0 s	10.6	154.6 s	510.5 s	41.1%	59.1	restored	statistically elevated	ED50 ([2]; oral): 14.3 µmol/kg; penile erection index (PEI) ([2]; oral, dose 1.25 mg/kg): 26.5 ± 6.6; penile erection index (PEI) ([2]; oral, dose 2.5 mg/kg): 46.6 ± 3.3; penile erection index (PEI) ([2]; oral, dose 5 mg/kg): 63.3 ± 3.4; LD50 at 24 h [3]: > 2000 mg/kg; toxic symptoms after oral dosing (rats): gradually became drowsy and less responsive
